# Read-outs that look alike come from different tables or passages of the source.
# What was measured:
# [1] = test system: colorectal (HT-29) carcinoma cell line; assay: Extracellular acidification (delta pH of medium) in HT-29 cells; type: cell-based; conditions: for reduction of extracellular acidification: HT-29, hypoxia (0.2% oxygen)
# Procedure: (§1) The experiment was set up as previously described (Dubois et al, 2007). A colorectal (HT-29) (FIG. 5a) and a cervical (HeLa) (FIG. 5b) carcinoma cell line were tested in normoxic (ambient oxygen concentration) and hypoxic (0.2% oxygen) conditions. HT-29 cells are known to be constitutive hypoxia inducible CA IX (CA IX expression under normoxia and increased CA IX expression upon hypoxia) expressing cells. Therefore, compounds were added after 1 h of hypoxic exposure (to ensure active CA IX) and incubation was done for another 23 h (total of 24 h hypoxia). HeLa cells are hypoxia inducible (at lower density) CA IX expressing cells. Therefore, HeLa were first incubated for 24 h hypoxia to ensure CA IX expression in the first place (time point assessed in time series experiments). Afterwards, compounds were added and cells were incubated for another 24 h.
# (§2) Experiments were performed in triplicate for each condition. The described conditions were done both for HT-29 and HeLa under normoxic and hypoxic conditions.
# (§3) Following conditions were assessed: • Blank 1 mM or 0.1 mM (no addition of compound, only DMSO/PBS) • DH307 1 mM or 0.1 mM • DH310 1 mM or 0.1 mM • DH338 1 mM or 0.1 mM • DH348 1 mM or 0.1 mM • S=AEBS (4-(2-aminoethylbenzenesulfonamide); Sigma) 1 mM or 0.1 mM (known to reduce extracellular pH as described by (Svastova et al, 2004))
# (§4) Cells were seeded in 6 cm dishes (HT-29: 10e6; HeLa: 4×10^5: to compensate for cell size) in 5 ml of DMEM supplemented with 10% FCS. The day after, medium was replaced by 3.6 ml of freshly prepared DMEM/FCS 10%, from which the pH was measured=pH at incubation), after which dishes were placed in the hypoxic chamber (normoxic dishes remained at ambient air in the incubator: 37° C., 95% humidity, 5% CO2). Compounds were added (1 h for HT-29 or 24 h for HeLa after start hypoxic exposure) to have a final concentration of 1 mM or 0.1 mM, by adding 400 μl to the dishes, starting from a 10 or 1 mM stock (DMSO final concentration 0.1%). Blanc controls received DMSO/PBS without compound. pH of the medium was measured after 24 h (HT-29) or 48 h (HeLa) inside the hypoxic chamber after calibration of the electrode to reduced oxygen concentrations. Delta pH (pH at end hypoxic exposure−pH of replacement medium before incubation) were calculated and shown in the graph of FIGS. 5a and 5b.
# hCA IX = hCA IX (Homo sapiens (Human), UniProt Q16790); assay: CA-catalyzed CO2 hydration stopped-flow inhibition assay, hCA IX
# Procedure: The uncatalyzed rates were determined in the same manner and subtracted from the total observed rates. Stock solutions of inhibitor (1 mM) were prepared in distilled-deionized water with 10-20% (v/v) DMSO (which is not inhibitory at these concentrations) and dilutions up to 0.1 nM were done thereafter with distilled-deionized water. Inhibitor and enzyme solutions were preincubated together for 15 min at room temperature prior to assay, in order to allow for the formation of CA IX-inhibitor complex. The inhibition constants were obtained by non-linear last-squares methods using PRISM 3 and represent the mean from at least three different determinations.
# [2] = test system: cervical (HeLa) carcinoma cell line; assay: Extracellular acidification (delta pH of medium) in HeLa cells; type: cell-based, human
# Procedure: as §1, §2, §3, §4
# [3] = read-out: KI hCA IX, stopped-flow CO2 hydration, pH 7.5, 15 min preincubation
melting point [°C],Compound,reduction of extracellular acidification ([1]; 1 mM),Ki (hCA IX; [3]) [nM],other results
,N-[2-(2-methyl-5-nitro-imidazol-1-yl)ethyl]sulfamate [Compound 9],best results,,
,"Cc1ncc([N+](=O)[O-])n1CCNC(=S)Nc1ccc(S(N)(=O)=O)cc1 [Compound 6a, N-(4-sulfamoylphenyl)-N-((2-aminoethyl)-2-methyl-5-nitroimidazolyl)thiourea]",,7.3,
139 to 141,"NS(=O)(=O)c1ccc(CCNC(=O)Cn2ccnc2[N+](=O)[O-])cc1 [Compound 4d, 2-(2-nitro-imidazol-1-yl)-N-[2-(4-sulfamoylphenyl)ethyl]acetamide]",,,Ki (hCA IX): 7.3 nM
,"Cc1ncc([N+](=O)[O-])n1CCNC(=S)NCc1ccc(S(N)(=O)=O)cc1 [Compound 6c, N-(4-sulfamoylbenzyl)-N-((2-aminoethyl)-2-methyl-5-nitroimidazolyl)thiourea]",,8.3,"reduction of extracellular acidification ([2]; hypoxia (0.2% oxygen), 0.1 mM): strong reduction; reduction of extracellular acidification ([2]; hypoxia (0.2% oxygen), 1 mM): made the medium alkaline"
163 to 165,"NS(=O)(=O)c1ccc(NC(=O)Cn2ccnc2[N+](=O)[O-])cc1 [Compound 4a, 2-(2-nitro-imidazol-1-yl)-N-(4-sulfamoylphenyl)acetamide]",,70,
195 to 197,"NS(=O)(=O)c1cccc(NC(=O)Cn2ccnc2[N+](=O)[O-])c1 [Compound 4b, 2-(2-nitro-imidazol-1-yl)-N-(3-sulfamoylphenyl)acetamide]",,,
,"Cc1ncc([N+](=O)[O-])n1CCNC(=S)NCCc1ccc(S(N)(=O)=O)cc1 [Compound 6d, N-(4-sulfamoylphenylethyl)-N-((2-aminoethyl)-2-methyl-5-nitroimidazolyl)thiourea]",,7.8,
,"NCCc1ccc(S(N)(=O)=O)cc1 [S, 4-(2-aminoethylbenzenesulfonamide), reference compound]",effectively reduced the extracellular acidification,,"reduction of extracellular acidification ([1]; 0.1 mM): less; effect on extracellular acidification upon normoxic exposure ([1]; HT-29, normoxia): No effect; reduction of extracellular acidification ([2]; hypoxia (0.2% oxygen), 0.1 mM): less; reduction of extracellular acidification ([2]; hypoxia (0.2% oxygen), 1 mM): effectively reduced the extracellular acidification; effect on extracellular acidification upon normoxic exposure ([2]; normoxia): No effect"
122,"Cc1ncc([N+](=O)[O-])n1CCNS(N)(=O)=O [Compound 7, N-[2-(2-methyl-5-nitro-imidazol-1-yl)ethyl]sulfamide]",best results,,"reduction of extracellular acidification ([1]; 0.1 mM): additional reduction compared with the other compounds; reduction of extracellular acidification ([2]; hypoxia, concentration not specified): best results"

# Reference: patent US8980932B2, “Cancer targeting using carbonic anhydrase isoform IX inhibitors” (Stichting Maastricht Radiation Oncology “Maastro-Clinic”, priority 2010, dated 2015)
